Test results reported in paper PMC8908504 (ACS Omega, 2022).
Entries after “also recorded” stand apart in the source; their conditions may differ. Read-outs that look alike come from different tables or passages of the source. Marks after values point to notes of the source that are not given here.

Tests used:
[1] = target: T1, KV7.2/3 channel (Homo sapiens, UniProt O43525+O43526); test: KV7.2/3 channel opening assay (thallium-sensitive fluorescence); type: cell-based; settings: for potency relative to flupirtine: KV7.2/3 opening, EC50 compared with flupirtine
Protocol: To evaluate the biological activity, the synthesized analogues were tested on HEK293 cells overexpressing the KV7.2/3 channel. The measurement was carried out in a fluorescence-based assay in which a thallium-sensitive dye generated the fluorescence signal. Due to its similarity to potassium, thallium can also pass through KV7 channels. The intensity of the fluorescence signal correlates with the amount of intracellular thallium and thus with the ability of the compounds to open KV7 channels. To determine the potency, the fluorescence intensity was measured as a function of the compound concentration. The efficacy was determined relative to the maximum fluorescence signal induced by flupirtine. For a summary of the activity data, see Table 2.
The cell culture of the KV7.2/3 transfected HEK293 cells (HEK293 KCNQ2/3 cells from SB Drug Discovery, Glasgow, UK) used for the assay and the processing of the obtained data were performed as described in earlier work.[27],[29] Briefly, 60,000 cells/well were seeded into 96-well microtiter plates for fluorescence-based assays (4titude Vision Plate Black 96-Well microtiter plates from ThermoScientic) and incubated for 24 h. After incubation, the medium was changed to 200 μL/well loading buffer containing 5 mmol/L probenecid and incubated for 1 h at room temperature. Subsequently, the test compounds dissolved in DMSO were added to the wells to the desired concentrations and further incubated for 30 min. As a control, the loading buffer with a DMSO concentration corresponding to the substance samples (1% (V/V)) was used. Fluorescence measurements were performed on the Infinite F200 Pro plate reader (Tecan) set at […]/emission wavelengths of 485 and 535 nm, respectively. After measuring the background fluorescence (baseline) for 20 s, a stimulus buffer (25 mmol/L K^+, 15 mmol/L Tl^+) was added just before the fluorescence of each well was measured.
The calculations to obtain dose–response curves were performed in the same manner as in previous investigations.[27],[29] Briefly, the fluorescence intensity was normalized with the baseline signal (F/F0) at each time of signal acquisition. To obtain the corrected negative control, a value of 1 was subtracted from the normalized value of the negative control. Subsequently, the value of the corrected negative control was subtracted from the maximum (corr. F/F0) value of a compound in a defined concentration (corr. ΔF/F0) and then plotted against the logarithmic concentration. The EC50 value was calculated as relative values with GraphPad Prism 6 (La Jolla, CA, USA), that is, the inflection points of the sigmoidal curves. The Emax value, the maximum response, indicates the intrinsic activity of a compound. This value was determined relative to flupirtine (1), where the maximum corr. ΔF/F0 value of flupirtine (1) was defined as 100%. The EC50 and Emax value of a compound is the mean of at least three independent experiments ± standard deviation (SD).

[2] = log D7.4 estimation by HPLC-based method; type: physicochemical
Protocol: The log D7.4 values were estimated using a common HPLC-based method in accordance with guideline OPPTS 830.7570 of the United States Environmental Protection Agency (EPA). The HPLC measurements were performed with a Phenomenex Luna 5 μm Phenyl-Hexyl 100 Å column (150 × 4.6 mm). […]. Uracil was used to measure the unretained peak time. To obtain a calibration function, the logarithm of the capacity factors for the reference substances was then plotted against the corresponding log P values taken from the mentioned guideline, which are equivalent to the log D7.4 values for non-ionizable compounds like the reference substances used for calibration. With this calibration function, it was possible to estimate the log D7.4 value from the corresponding retention time for each compound to be tested. For the measurement, 2 mg of the reference substances was each dissolved in 1 mL of methanol. A reference mixture was then obtained by combining 50 μL of each reference solution. The reference mixture was measured before and after the substances to be tested. The mean value from both measurements was used for the calibration line. The substances to be tested were injected as a solution in methanol (2 mg/mL), and the retention time was determined as the mean value from two measurements.

[3] = system: TAMH cells; test: MTT cell viability assay, TAMH cells; settings: TAMH cells, MTT assay, 24 h exposure; for LD25: 25% reduction of viability; for LD50: 50% reduction of viability
Excerpt: (§1) In addition to the activity, basic toxicological properties of the newly synthesized compounds were also investigated by using the 3-(4,5-dimethylthiazol-2-yl)-2,5-diphenyltetrazolium bromide (MTT) cell viability assay on mouse TAMH and human HEP-G2 hepatic cell lines (see Table 2). Both cell lines are established for the evaluation of hepatotoxicity.[42],[43]
(§2) The culturing of the mouse liver TAMH and human liver cancer HEP-G2 cell lines and the MTT assay used to evaluate cell viability were carried out as previously described elsewhere in detail.[27],[29] […] The medium in the wells was then replaced with the medium containing the compounds. Control wells contained an equivalent number of cells and 1% (v/v) DMSO. Wells without cells were used to determine the background optical density (OD) and were treated as the control wells. After 24 or 48 h of incubation with the compound, the respective medium was replaced with a fresh medium supplemented with 10% (v/v) of a 2.5 mg/mL solution of MTT. The plates were incubated for 4 h. Then, the culture medium was carefully aspirated off and 50 μL of DMSO was added to each well to dissolve the formazan crystals. The ODs of each well were measured at λ = 570 nm with a SpectraMax 190 microplate reader.
(§3) The calculated T/Ccorr. values were plotted against the log(concentration). The LD50 and LD25 values were determined by using GraphPad Prism 6. […] The values are given as the mean with SD of at least three independent experiments.

[4] = system: HEP-G2 cells; test: MTT cell viability assay, HEP-G2 cells; settings: HEP-G2 cells, MTT assay, 24 h exposure; for LD25: 25% reduction of viability; for LD50: 50% reduction of viability
Excerpt: as §1, §2, §3

[5] = Maximum concentration without precipitation in MTT assay buffer; type: physicochemical
Excerpt: A limitation in the in vitro toxicity testing was the occasional poor water solubility of the analogues.

[6] = parameters: method as in guideline OPPTS 830.7570 (EPA); settings: reference substances for calibration; log P values; ref guideline OPPTS 830.7570 (EPA); cited from earlier work
[7] = system: TAMH cells; settings: MTT assay, 24 h exposure; cited from earlier work
[8] = system: HEP-G2 cells; settings: MTT assay, 24 h exposure; cited from earlier work
[9] = target: T1, KV7.2/3 channel; settings: cited from earlier work
[10] = HPLC, Phenomenex Luna 5 μm Phenyl-Hexyl column, pH 7.4, HPLC, mean of two calibrations, read-out: logD7.4 (mean)
[11] = HPLC, Phenomenex Luna 5 μm Phenyl-Hexyl column, pH 7.4, estimated by HPLC-based method, pH 7.4, read-out: log D7.4

T1 sequence (O43526 whole entry): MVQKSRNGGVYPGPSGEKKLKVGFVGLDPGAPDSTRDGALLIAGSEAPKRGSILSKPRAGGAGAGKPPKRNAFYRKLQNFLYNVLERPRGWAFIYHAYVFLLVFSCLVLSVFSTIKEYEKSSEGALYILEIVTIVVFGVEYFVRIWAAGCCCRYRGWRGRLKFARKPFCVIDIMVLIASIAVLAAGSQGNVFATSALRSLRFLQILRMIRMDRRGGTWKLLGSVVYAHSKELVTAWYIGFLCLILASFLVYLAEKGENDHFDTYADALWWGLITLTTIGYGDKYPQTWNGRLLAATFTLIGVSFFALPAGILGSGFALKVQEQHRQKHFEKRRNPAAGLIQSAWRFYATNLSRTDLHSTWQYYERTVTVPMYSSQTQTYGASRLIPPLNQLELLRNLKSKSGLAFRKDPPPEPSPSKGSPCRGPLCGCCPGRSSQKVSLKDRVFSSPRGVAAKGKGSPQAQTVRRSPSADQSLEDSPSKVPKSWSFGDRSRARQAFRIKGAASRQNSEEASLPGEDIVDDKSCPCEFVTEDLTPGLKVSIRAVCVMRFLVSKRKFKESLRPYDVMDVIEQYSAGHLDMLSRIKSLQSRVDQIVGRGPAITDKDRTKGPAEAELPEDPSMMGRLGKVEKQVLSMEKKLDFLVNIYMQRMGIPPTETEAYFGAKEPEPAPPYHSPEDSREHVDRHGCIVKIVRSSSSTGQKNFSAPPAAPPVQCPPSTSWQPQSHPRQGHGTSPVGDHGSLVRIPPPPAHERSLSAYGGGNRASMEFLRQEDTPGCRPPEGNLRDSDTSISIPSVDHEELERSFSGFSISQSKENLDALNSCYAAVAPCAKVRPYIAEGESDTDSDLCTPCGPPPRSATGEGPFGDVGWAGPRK
T1 sequence (O43525 whole entry): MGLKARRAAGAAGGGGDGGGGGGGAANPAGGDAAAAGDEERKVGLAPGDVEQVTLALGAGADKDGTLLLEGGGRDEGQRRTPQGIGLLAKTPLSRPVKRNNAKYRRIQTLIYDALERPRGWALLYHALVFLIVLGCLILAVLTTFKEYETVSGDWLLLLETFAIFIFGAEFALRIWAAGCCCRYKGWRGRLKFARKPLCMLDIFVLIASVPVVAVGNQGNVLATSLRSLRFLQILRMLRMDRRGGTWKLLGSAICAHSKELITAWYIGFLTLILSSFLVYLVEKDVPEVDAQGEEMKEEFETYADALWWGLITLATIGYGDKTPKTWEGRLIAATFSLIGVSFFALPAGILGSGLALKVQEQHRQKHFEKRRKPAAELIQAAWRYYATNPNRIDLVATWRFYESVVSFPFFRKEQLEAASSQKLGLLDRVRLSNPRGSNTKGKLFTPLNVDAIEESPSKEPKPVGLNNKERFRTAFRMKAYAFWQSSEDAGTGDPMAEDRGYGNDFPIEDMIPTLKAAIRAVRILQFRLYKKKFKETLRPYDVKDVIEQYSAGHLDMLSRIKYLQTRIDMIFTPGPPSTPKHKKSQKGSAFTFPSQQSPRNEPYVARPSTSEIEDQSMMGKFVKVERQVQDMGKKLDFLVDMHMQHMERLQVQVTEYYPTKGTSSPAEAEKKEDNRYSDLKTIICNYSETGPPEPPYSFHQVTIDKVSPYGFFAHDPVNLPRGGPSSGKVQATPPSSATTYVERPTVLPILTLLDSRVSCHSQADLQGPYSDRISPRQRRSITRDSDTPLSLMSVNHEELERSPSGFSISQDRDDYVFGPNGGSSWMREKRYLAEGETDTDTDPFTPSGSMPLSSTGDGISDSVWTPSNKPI

COc1nc(NCc2ccc(F)cc2)cc(C)c1C(=O)NCc1ccc(F)cc1 [36b, N-(4-Fluorobenzyl)-6-[(4-fluorobenzyl)amino]-2-methoxy-4-methylnicotinamide]
EC50 ([1]; HEK293 cells overexpressing KV7.2/3, concentration for half-maximal channel opening, mean ± SD, ≥3 determinations): 310 nM | efficacy ([1]; HEK293 cells overexpressing KV7.2/3, relative to maximum signal of flupirtine (=100%)): 105 ± 12% | potency relative to flupirtine [1]: about six times more potent than flupirtine; also recorded: six times as potent as flupirtine | potency relative to flupirtine ([1]; listed as N-(4-fluorobenzyl)-6-[(4-fluorobenzyl)amino]-2-methoxy-4-methylnicotinamide): six times as active as flupirtine | chromatographic logD ([2]; HPLC, Phenomenex Luna 5 μm Phenyl-Hexyl column, pH 7.4, HPLC, calibration A1, read-out: logD7.4): 4.13 | chromatographic logD ([2]; HPLC, Phenomenex Luna 5 μm Phenyl-Hexyl column, pH 7.4, HPLC, calibration B1, read-out: logD7.4): 4.09 | chromatographic logD [2, 10]: 4.1 | chromatographic logD [2, 11]: 4.1 | LD25 [3]: >63 µM | LD50 [3]: >63 µM | LD25 [4]: >16 µM | LD50 [4]: >16 µM | maximum concentration achieved without precipitating [5]: 63 µM

c1ccc(N(c2ccccc2)c2ccccc2)cc1 [Triphenylamine]
logD (Lit.) [6]: 5.7

CCOC(=O)Nc1ccc(NCc2ccc(F)cc2)cc1N [compound 2, retigabine]
LD50 [7]: >400 ^f μM | LD25 [8]: 269 ± 166 ^f μM | LD50 [8]: >400 ^f μM | chromatographic logD ([2]; pH 7.4, HPLC, calibration C, read-out: logD7.4): 2.05 | chromatographic logD ([2]; pH 7.4, HPLC, calibration D, read-out: logD7.4): 2.06 | chromatographic logD ([2]; pH 7.4, HPLC, mean of two calibrations, read-out: logD7.4 (mean)): 2.1 | chromatographic logD ([2]; pH 7.4, estimated by HPLC-based method, pH 7.4, read-out: log D7.4): 2.1 | EC50 ([9]; HEK293 cells overexpressing KV7.2/3, mean ± SD): 147 ± 12 nM | efficacy ([9]; HEK293 cells overexpressing KV7.2/3, relative to flupirtine): 134 ± 16 ^f %

Cc1cc(NCc2ccc(F)cc2)[nH]c(=O)c1C(=O)NCc1ccc(F)cc1 [compound 37, N-(4-Fluorobenzyl)-6-[(4-fluorobenzyl)amino]-4-methyl-2-oxo-1,2-dihydropyridine-3-carboxamide]
melting point: 196 °C

O=C(Cc1cc(F)cc(F)c1)Nc1ccc(N2CCOCC2)nc1N1CCOCC1 [compound 49]
EC50 ([9]; KV7.2/3, lead structure from previous work, read-out: EC50): 11 nM

Cc1cc(NCc2ccc(F)cc2)nc(N2CCOCC2)c1CNC(=O)OCC(C)C [compound 66, Isobutyl ({6-[(4-Fluorobenzyl)amino]-4-methyl-2-morpholinopyridin-3-yl}methyl)carbamate]
EC50 ([1]; HEK293 cells overexpressing KV7.2/3, footnote e): > 10000 nM | KV7.2/3 channel opening activity (in words) ([1]; inactive = no channel opening activity detected up to a concentration of 10 μM): inactive | chromatographic logD ([2]; HPLC, Phenomenex Luna 5 μm Phenyl-Hexyl column, pH 7.4, HPLC, calibration A2, read-out: logD7.4): 4.75 | chromatographic logD ([2]; HPLC, Phenomenex Luna 5 μm Phenyl-Hexyl column, pH 7.4, HPLC, calibration B2, read-out: logD7.4): 4.75 | chromatographic logD [2, 10]: 4.8 | chromatographic logD [2, 11]: 4.8 | LD25 [3]: 52 ± 61 µM | LD50 [3]: >125 µM | LD25 [4]: 24 ± 27 µM | LD50 [4]: >125 µM
